Structures are written as SMILES. pIC50: −log10 of the molar value.

Broadly, the pIC50 is −log10 of the IC50, conventionally taken in molar units. A lower pIC50 goes with a large IC50.

This assay deals with T1, tCD14-His6 (truncated CD14) (Homo sapiens, UniProt P08571).
T1 sequence (P08571 20-175 limits assumed): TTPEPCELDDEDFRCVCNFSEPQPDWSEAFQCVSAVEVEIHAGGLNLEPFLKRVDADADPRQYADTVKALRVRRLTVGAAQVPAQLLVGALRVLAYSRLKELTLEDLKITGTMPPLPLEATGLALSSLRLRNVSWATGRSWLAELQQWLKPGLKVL
Type of assay: binding.
The compound `CCCCCCCCCCCCCCOc1ccc(C[N+](C)(C)C2CCCC2)cc1OCCCCCCCCCCCCCC` [compound 3, N-(3,4-bis-tetradecyloxy-benzyl)-N-cyclopentyl-N,N-dimethylammonium] gave a pIC50 of 6.40.
As for `CCCCCCCCCCCCCCO[C@H]1[C@@H](OC)O[C@H](C[N+](C)(C)C2CCCC2)[C@@H](O)[C@@H]1OCCCCCCCCCCCCCC` [compound 1, methyl 6-deoxy-6-N-dimethyl-N-cyclopentylamonium-2,3-di-O-tetradecyl-α-D-glucopyranoside], the figure is 6.10.
`CCCCCCCCCCCCCCO[C@H]1[C@@H](OC)O[C@H](CN)[C@@H](O)[C@@H]1OCCCCCCCCCCCCCC` [compound 2, methyl 6-deoxy-6-amino-2,3-di-O-tetradecyl-α-D-glucopyranoside] had a pIC50 of 5.70.

The record behind these values is PMC2802518 (Biochemistry, 2009).
